Patent US8455491B2, “6-cycloamino-3-(pyridazin-4-yl)imidazo[1,2-b]pyridazine and derivatives and pharmaceutical compositions comprising the same” (Sanofi, priority 2007, dated 2013)

Tests used:
[1] = target: T1, human CK1 delta (Homo sapiens, UniProt P48730); assay: FRET fluorescence test (Z'Lyte kinase assay Kit), CK1 delta; type: biochemical; conditions: peptide substrate SER/THR 11 2 μM, ATP 4 times the KM
T1 construct: purchased Invitrogen Corporation PV3665
Description: The capacity of the compounds of the invention to inhibit the phosphorylation of casein by casein kinase 1 epsilon and delta may be evaluated using a FRET (“Fluorescence Resonance Energy Transfer) fluorescence test with the aid of the “Z′Lyte™ kinase assay Kit” (reference PV3670; Invitrogen Corporation™) according to the manufacturer's instructions.
The casein kinases 1 used are obtained from Invitrogen Corporation (human CK1 epsilon PV3500 and human CK1 delta PV3665).
A peptide substrate, labeled at both ends with a fluorophore donor group (coumarin) and a fluorophore acceptor group ([…]) constituting a FRET system is phosphorylated in the presence of ATP by casein kinase 1 epsilon or delta in the presence increasing concentrations of compounds of the invention. The mixture is treated with a site-specific protease that specifically cleaves the peptide substrate to form two fluorescent fragments having a large fluorescence emission ratio.
The fluorescence observed is thus related to the capacity of the products of the invention to inhibit the phosphorylation of the peptide substrate by casein kinase 1 epsilon or casein kinase 1 delta.
The compounds of the invention are dissolved at different concentrations starting with a 10 mM stock solution in DMSO diluted in a buffer containing 50 mM HEPS, pH 7.5, 1 m MEGTA, 0.01% Brij-35, 10 mM MgCl for casein kinase 1 epsilon and supplemented with Trizma Base (50 mM), pH 8.0, and NaN3 (0.01% final) for casein kinase 1 delta.
The phosphorylation of the peptide substrate SER/THR 11 obtained from Invitrogen Corporation™ is performed at a final concentration of 2 μM. The ATP concentration is 4 times the KM, this value being 2 μM for casein kinase 1 epsilon and 4 μM for casein kinase 1 delta.
The emitted fluorescence is measured at wavelengths of 445 and 520 nm (excitation at 400 nm).

[2] = test system: Mper1-luc Rat-1 (P2C4) fibroblasts; assay: Circadian cell assay (mPer1-luciferase reporter, period prolongation); type: cell-based; conditions: effective concentration that induced a 1-hour prolongation of the circadian period, interpolated from hyperbolic curve
Experimental: Experimental Protocols for Circadian Cell Assay
Mper1-luc Rat-1 (P2C4) fibroblast cultures were prepared by dividing the cultures every 3-4 days (approximately 10-20% of confluence) on 150 cm^2 degassed polystyrene tissue culture flasks (Falcon® #35-5001) and maintained in growth medium [EMEM (Cellgro #10-010-CV); 10% fetal bovine serum (FBS; Gibco #16000-044); and 50 I.U./ml of penicillin-streptomycin (Cellgro #30-001-CI)] at 37° C. and under 5% CO2.
Cells obtained from Rat-1 fibroblast cultures at 30-50% of confluence as described above were co-transfected with vectors containing the selection marker for resistance to zeocin for a stable transfection and a luciferase reporter gene controlled by the mPer-1 promoter. After 24 to 48 hours, the cultures were divided on 96-well plates and maintained in growth medium supplemented with 50-100 μg/ml of zeocin (Invitrogen® #45-0430) for 10-14 days. The zeocin-resistant stable transfectants were evaluated for the expression of the reporter by adding 100 μM lucerfin (Promega® #E1603®) to the growth medium and by assaying the luciferase activity on a TopCount® scintillation counter (Packard Model #C384V00). The Rat-1 cell clones expressing both zeocin resistance and lucerifase activity controlled by mPer1 were serum-shock synchronized with 50% horse serum [HS (Gibco® #16050-122)] and the activity of the circadian reporter was evaluated. The P2C4 clone of Mper1-luc Rat-1 fibroblasts was selected to test the compound.
Mper1-luc Rat-1 (P2C4) fibroblasts at 40-50% of confluence, obtained according to the protocol described above, were plated out onto 96-well opaque tissue culture plates (Perkin Elmer® #6005680). The cultures are maintained in growth medium supplemented with 100 μg/ml of zeocin (Invitrogen #45-0430) until they reach 100% of confluence (48-72 h). The cultures were then synchronized with 100 μl of synchronization medium [EMEM (Cellgro #10-010-CV); 100 I.U./ml of penicillin-streptomycin (Cellgro #30-001-C1); 50% HS (Gibco #16050-122)] for 2 hours at 37° C. and under 5% CO2. After synchronization, the cultures were rinsed with 100 μl of EMEM (Cellgro #10-010-CV) for 10 minutes at ambient temperature. […]
The period analysis was performed either by determining the interval between the relative light emission minima over several days or by Fourier transform. […] The data were analyzed by adjusting a hyperbolic curve to the data expressed as change of period (y-axis) as a function of the concentration of the test compound (x-axis) in the XLfit™ software and the CE Delta (t+1 h) was interpolated from this curve.

T1 sequence (P48730 whole entry): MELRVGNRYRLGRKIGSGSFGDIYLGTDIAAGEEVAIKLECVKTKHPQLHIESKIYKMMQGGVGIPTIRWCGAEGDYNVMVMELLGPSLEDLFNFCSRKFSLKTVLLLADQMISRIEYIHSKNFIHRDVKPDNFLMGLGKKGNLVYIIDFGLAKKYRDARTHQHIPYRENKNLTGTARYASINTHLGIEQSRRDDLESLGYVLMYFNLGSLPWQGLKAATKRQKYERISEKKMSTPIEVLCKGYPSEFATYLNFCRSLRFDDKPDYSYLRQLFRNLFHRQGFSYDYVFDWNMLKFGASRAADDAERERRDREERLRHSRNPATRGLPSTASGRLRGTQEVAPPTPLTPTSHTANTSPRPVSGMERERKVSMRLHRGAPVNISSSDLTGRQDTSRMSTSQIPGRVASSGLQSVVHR

CN1CCN(c2ccc3nc(-c4ccc(F)cc4)c(-c4ccnnc4)n3n2)CC1 [compound 5, 2-(4-fluorophenyl)-6-(4-methylpiperazin-1-yl)-3-pyridazin-4-yl-imidazo[1,2-b]pyridazine]
IC50 [1]: 41 to 56 nM
CE Delta (t + 1 h) [2]: 5 nM
melting point: 232 to 233 °C
